These results are taken from PMC9080521, “Molecular basis of rutin inhibition of protein disulfide isomerase (PDI) by combined in silico and experimental methods” (RSC Advances, 2018).

One assay deals with T1, wt MBP-PDI-b′xa′ (Homo sapiens, UniProt P07237).
T1 construct: MBP-PDI-b′xa′(235–479); His-tag; made in house; host or cells: E. coli BL21 (DE3)
Briefly: Insulin reduction assay. It is filed as biochemical. Particulars: compound 100 μM, 1.5 μM protein, last read (100 min); WT alone 0.829. Here is the method:
(§1) The insulin reduction assay was performed to assess the enzymatic activity of PDI and its MBP-fused recombinant proteins. PDI can reduce insulin in the presence of dithiothreitol (DTT) along with increase in turbidity of the reaction mixture. We thus monitored spectrophotometrically the aggregation of reduced insulin through the increase of turbidity. The reductase activity was measured in 100 μL in presence of 600 μM insulin, 1.5 μM PDI and recombinant PDI proteins, 1 mM DTT, and with protein buffer (pH 7.4), at room temperature over 100 min by absorption at 650 nm. For inhibition assay, 100 μM of rutin, kaempferitrin, tiliroside and 2′-O-galloylhyperin or control buffer was added to the reaction system.
We further used the insulin reduction assay to measure the reductase activities of these site-directed MBP-PDI-b′xa′ mutants. This assay has typically good reproducibility as shown by a control experiment with three repetitions (Fig. S7 ^†). We found the PDI mutants maintained reductase activities in the presence of dithiothreitol (DTT). The H354A mutation lowered the reductase activity of wt MBP-PDI-b′xa′ (Fig. 3G) while other mutants had similar reductase activities with that of wt MBP-PDI-b′xa′ (Fig. 3C, F and H–J). Addition of rutin inhibited the reductase activities of both wt MBP-PDI-b′xa′ and the mutants (Fig. 3C and F–J). […] We quantified the inhibition of rutin on these MBP-PDI-b′xa′ mutants by measuring the increase of turbidity (OD650 at 100 min) upon addition of rutin (Fig. 3K).

The next assay addresses full-length human PDI (Homo sapiens, UniProt P07237). Kind of assay: Insulin reduction assay. It is filed as biochemical. Particulars: compound 100 μM; for turbidity (OD650), raw kinetic read at 1:40:32: 1.5 μM protein, last read (100 min), PDI alone 1.125. Here is the method: as §1
The test system of assay [1] is plasma thrombin generation activity. On the set-up: method as in PMID 28097231. Particulars: human, oral administration (1 gram); cited from earlier work.
The next assay has as its system PDI. Also on record: method as in PMID 21121641. Particulars: read-out: inhibits PDI at; cited from earlier work.

Sequence of full-length human PDI (P07237 18-508): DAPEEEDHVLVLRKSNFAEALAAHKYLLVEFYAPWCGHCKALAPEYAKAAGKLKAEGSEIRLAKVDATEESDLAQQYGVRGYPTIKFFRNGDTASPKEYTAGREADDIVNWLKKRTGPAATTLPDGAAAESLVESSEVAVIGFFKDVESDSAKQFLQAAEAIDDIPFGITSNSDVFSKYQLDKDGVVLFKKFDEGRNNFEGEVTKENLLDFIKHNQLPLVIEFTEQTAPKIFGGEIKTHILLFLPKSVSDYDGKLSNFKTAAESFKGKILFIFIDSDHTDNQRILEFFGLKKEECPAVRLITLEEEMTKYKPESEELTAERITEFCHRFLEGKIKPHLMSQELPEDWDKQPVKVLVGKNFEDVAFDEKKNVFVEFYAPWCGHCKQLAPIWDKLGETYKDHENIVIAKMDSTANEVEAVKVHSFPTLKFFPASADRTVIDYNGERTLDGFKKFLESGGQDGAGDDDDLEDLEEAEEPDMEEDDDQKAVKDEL
T1 sequence (P07237 235-479): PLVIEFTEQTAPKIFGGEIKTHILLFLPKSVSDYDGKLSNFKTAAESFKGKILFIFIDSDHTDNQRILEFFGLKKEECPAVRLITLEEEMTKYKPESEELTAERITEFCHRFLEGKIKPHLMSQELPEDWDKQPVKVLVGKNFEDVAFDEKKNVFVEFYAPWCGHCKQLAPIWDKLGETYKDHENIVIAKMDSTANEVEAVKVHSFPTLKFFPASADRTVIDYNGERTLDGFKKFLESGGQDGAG

As for `C[C@@H]1O[C@@H](Oc2cc(O)c3c(=O)c(O[C@@H]4O[C@@H](C)[C@H](O)[C@@H](O)[C@H]4O)c(-c4ccc(O)cc4)oc3c2)[C@H](O)[C@H](O)[C@H]1O` [kaempferitrin], the “turbidity (OD650), raw kinetic read at 1:40:32” value at wt MBP-PDI-b′xa′ is on record as 0.56; on full-length human PDI it was 0.998. In addition, the “inhibitory activity on reductase activity” value against full-length human PDI (full-length human PDI) is recorded as “smaller than that of rutin”. Turning to `O=C(/C=C/c1ccc(O)cc1)OC[C@H]1O[C@@H](Oc2c(-c3ccc(O)cc3)oc3cc(O)cc(O)c3c2=O)[C@H](O)[C@@H](O)[C@@H]1O` [tiliroside], the “turbidity (OD650), raw kinetic read at 1:40:32” value on wt MBP-PDI-b′xa′ worked out at 0.5; on full-length human PDI, 0.925. For the molecule `O=c1c(O[C@@H]2O[C@H](CO)[C@@H](O)[C@H](O)[C@H]2O)c(-c2ccc(O)c(O)c2)oc2cc(O)cc(O)c12` [isoquercetin], the “reduction of plasma thrombin generation activity” value in assay [1] is listed as “about half”. `C/C1=C/[C@H](O)C(C)(C)CCC/C(C)=C/C[C@H]1OC(=O)c1ccc(O)cc1` [juniferdin]: the IC50 in the assay with PDI is 156 nM.
